Numbering of substitutions follows the chain as printed.
How the values were obtained:
Type in all cases: cell-based
GluD2-WT = biological target: T1, GluD2-WT (Rattus norvegicus, UniProt Q63226); assay: TEVC of constitutive current, Xenopus oocytes expressing GluD2-WT
T1 construct: expressed in transfected cells; host or cells: Xenopus laevis oocytes injected with cRNA
T1 sequence (Q63226 24-1007): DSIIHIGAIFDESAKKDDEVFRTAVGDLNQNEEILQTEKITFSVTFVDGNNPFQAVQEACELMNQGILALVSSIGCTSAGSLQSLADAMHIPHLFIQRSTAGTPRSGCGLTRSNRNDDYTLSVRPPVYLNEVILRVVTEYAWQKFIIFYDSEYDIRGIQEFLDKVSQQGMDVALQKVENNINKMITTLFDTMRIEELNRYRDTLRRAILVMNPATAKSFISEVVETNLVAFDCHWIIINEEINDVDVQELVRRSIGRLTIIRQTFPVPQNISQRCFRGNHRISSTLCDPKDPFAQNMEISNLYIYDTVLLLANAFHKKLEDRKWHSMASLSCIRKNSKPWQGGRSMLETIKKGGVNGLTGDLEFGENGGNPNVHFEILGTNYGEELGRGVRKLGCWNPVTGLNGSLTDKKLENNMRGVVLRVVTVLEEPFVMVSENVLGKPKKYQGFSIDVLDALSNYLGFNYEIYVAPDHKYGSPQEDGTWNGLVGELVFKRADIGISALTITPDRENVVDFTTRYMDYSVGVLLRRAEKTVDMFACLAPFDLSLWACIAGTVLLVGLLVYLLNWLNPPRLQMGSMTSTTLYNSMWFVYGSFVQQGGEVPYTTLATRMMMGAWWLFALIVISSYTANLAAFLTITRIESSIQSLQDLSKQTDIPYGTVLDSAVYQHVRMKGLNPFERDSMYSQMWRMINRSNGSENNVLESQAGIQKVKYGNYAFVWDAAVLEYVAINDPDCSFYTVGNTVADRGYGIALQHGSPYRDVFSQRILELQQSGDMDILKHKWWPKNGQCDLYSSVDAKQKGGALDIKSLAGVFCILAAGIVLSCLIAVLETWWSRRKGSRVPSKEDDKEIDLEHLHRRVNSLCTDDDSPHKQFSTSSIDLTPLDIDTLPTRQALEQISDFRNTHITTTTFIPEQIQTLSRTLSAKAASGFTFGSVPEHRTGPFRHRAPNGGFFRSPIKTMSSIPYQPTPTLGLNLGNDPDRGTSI

GluD2-R710W = biological target: T2, GluD2-R710W (Rattus norvegicus, UniProt Q63226, R710W); assay: TEVC of constitutive current, Xenopus oocytes expressing GluD2-R710W; conditions: positive = increase, negative = decrease of activity
T2 construct: expressed in transfected cells; host or cells: Xenopus laevis oocytes injected with cRNA
T2 sequence (Q63226 24-1007 R710W): T1 sequence (Q63226 24-1007) with R687W

GluD2-T649M = biological target: T3, GluD2-T649M (Rattus norvegicus, UniProt Q63226, T649M); assay: TEVC of constitutive current, Xenopus oocytes expressing GluD2-T649M; conditions: positive = increase, negative = decrease of activity
T3 construct: expressed in transfected cells; host or cells: Xenopus laevis oocytes injected with cRNA
T3 sequence (Q63226 24-1007 T649M): T1 sequence (Q63226 24-1007) with T626M

| SMILES | Effect on difference current, in words (GluD2-WT; 10 mM D-serine) | D-Serine effect (Baseline −10 mM D-Serine) (GluD2-WT; 10 mM D-serine, positive = increase, negative = decrease of activity) | D-Serine effect (Baseline −10 mM D-Serine) (GluD2-R710W; 10 mM D-serine) | D-Serine effect (Baseline −10 mM D-Serine) (GluD2-T649M; 10 mM D-serine) | Pentamidine effect (Baseline −100 μM Pentamidine) (GluD2-WT; 100 μM pentamidine, positive = increase, negative = decrease of activity) | Pentamidine effect (Baseline −100 μM Pentamidine) (GluD2-R710W; 100 μM pentamidine) | Pentamidine effect (Baseline −100 μM Pentamidine) (GluD2-T649M; 100 μM pentamidine) |
| --- | --- | --- | --- | --- | --- | --- | --- |
| N[C@H](CO)C(=O)O [D-serine] | minimal activity | −3.6 ± 1.0 (14) nA | −2.3 ± 0.60 (11) nA | −0.31 ± 2.8 (16) nA |  |  |  |
| N=C(N)c1ccc(OCCCCCOc2ccc(C(=N)N)cc2)cc1 [Pentamidine, pentamidine] |  |  |  |  | 3.6 ± 4.8 (14) nA | 0.82 ± 1.9 (11) nA | 5.8 ± 7.0 (16) nA |

Source: paper PMC10840383, “Clinical features, functional consequences, and rescue pharmacology of missense GRID1 and GRID2 human variants” (Human Molecular Genetics, 2023)
